Source: US10519504B2, “Methods for treatment of oncological disorders using epimetabolic shifters, multidimensional intracellular molecules, or environmental influencers” (Berg LLC, priority 2009, dated 2019)
Where two headings read alike, the source gives them in different places.

Key:
[1] = tested on: Pyruvate Kinase M2 (PKM2); assay: Western blot, Pyruvate Kinase M2 levels; type: cell-based, human; settings: cancer cells tested
Description: The samples were processed and run on a 4-12% Bis-Tris Novex NuPAGE gel as described above. The gels were run, transferred and stained essentially as described above.
The lactate dehydrogenase blots were stripped by incubating for 30 minutes with methanol, followed by two 10 minute washes with TBS-T, then 30 minutes of incubation with Stripping buffer at 50 deg C., and followed by two washes with 100 ml or more of TBS-T for 30′ each. The 2 blots were scanned in laser scanner to check for complete stripping. The blots were activated with methanol for 5 seconds, washed with water for 5 minutes, and TBST for 15 minutes. The blots were blocked for 1 hour with 5% blocking reagent in TBS-T at room temperature and then washed 3 times with TBS-T (1X−15′; 2X5′ each) and probed with the rabbit polyclonal antibody for Pyruvate Kinase M2 in 5% BSA (NOVUS BIOLOGICALS catalog #H00005315-D01P) at 1:500 dilution overnight at 4 deg C. with shaking. After the overnight incubation with primary antibody for Pyruvate Kinase M2, the membranes were washed 3 times with TBS-T (1X−15′; 2X5′ each) and probed with the secondary antibody (antirabbit; 1:10,000 dilution) for 1 h on the orbital tilting shaker at room temperature. […]

[2] = tested on: Pancreatic Cancer Cells (PaCa2); assay: Real-time PCR Apoptosis Array; type: cell-based
Description: (§1) Experiments were carried out essentially as described above.

HK-2 cells = assay: Diabetes PCR array; type: cell-based, human; settings: HK2(H) cells, 22 mM glucose; particularly 100 μM
Description: The HK-2 and HASMC cells are normally maintained in culture at 5.5 mM glucose, which is a concentration that corresponds to a range considered normal in human blood. However, in order to simulate a diabetic environment, both cell lines were subsequently maintained at 22 mM glucose, which corresponds to the range observed in human blood associated with chronic hyperglycemia. The cells were subsequently allowed to propagate over 3 passages so that the intracellular regulation processes were functionally adapted to mimic a diabetic state. The choice of cell line was based on the physiologic influence of diabetes on renal dysfunction and progression to end-stage renal disease (ESRD) in addition to the progressive pathophysiology of a compromised cardiovascular function.
The Diabetes PCR array (SABiosciences) offers a screen for 84 genes simultaneously.
A stringent analysis of the Real time PCR data of the HK-2 samples on the Diabetes Arrays (Cat #PAHS-023E, SABiosciences Frederick Md.) was made to exclude all results where gene regulation was not at least a two-fold regulation over HK-2 normal untreated cells with a p value of less than 0.05.

[3] = tested on: induced pancreatic cancer; settings: for survival after 28 days: intravenous
[4] = tested on: Pancreatic Cancer Cells (PaCa2); assay: Real-time PCR Diabetes Array; type: cell-based; settings: 100 uM Q10
Description: as §1

SK-MEL-28 mitochondria = settings: human, 48 h, 100 µM
Description: Cells were centrifuged, pelleted, flash frozen and stored at −80° C. until the mitochondria were isolated. Cell pellets were thawed, resuspended and ruptured in Dounce homogenizer. The homogenate was centrifuged and mitochondria were isolated using reagents and the protocol recommended by the Mitochondria Isolation kit for Cultured cells (MitoSciences, Eugene Oreg., Cat #MS852). The mitochondrial fraction was aliquoted and stored at −80° C.
Analysis was by LC-MS/MS on a Waters Quattro II triple quadrupole mass spectrometer with a Prism RP 1×100 mm, 5 μm particle size column (Keystone Scientific). Isocratic elution with 4 mM ammonium formate in 20% isopropyl alcohol 80% methanol at a flow rate of 50 μl/min. Ten μl of each sample was injected.

COC1=C(OC)C(=O)C(C/C=C(\C)CC/C=C(\C)CC/C=C(\C)CC/C=C(\C)CC/C=C(\C)CC/C=C(\C)CC/C=C(\C)CC/C=C(\C)CC/C=C(\C)CCC=C(C)C)=C(C)C1=O [Q10, Coenzyme Q10]
PKM2 expression [1]: dose-dependent decrease in the PKM2 expression
apoptosis array genes (ABL1, AKT1, Bcl2L1 ... TNFSF10 as listed) ([2]; 100 uM Q10): modulated by Q10 treatment
genes from the apoptosis array whose expression is regulated ([2]; 100 μM Q10, genes: CASP1, CASP6, TNF, TNFSF10, ABL1, AKT1, BclAF1, Bcl2L1, CASP2, CIDEA, FADD, LTA, TNFSF10A): A list of genes from the apoptosis array whose expression is regulated
CEACAM1 RNA transcript (HK-2 cells): highly upregulated
dose response of survival ([3]; 5 to 50 mg/kg): those animals receiving higher doses had a higher survival rate
survival after 28 days ([3]; Group G: 50 mg/kg): all of the animals receiving the highest dose of coenzyme Q10 (Group G) remained alive at 28 days
survival after 28 days ([3]; Groups D, E, F: 5, 10, 25 mg/kg): most of the animals in Groups D, E and F remained alive
diabetes array genes (ABCC8, ACLY, ADRB3 ... IL4R, IL6 as listed) [4]: modulated by Q10 treatment
Q10H2 (SK-MEL-28 mitochondria): 0.28 ng/Sample
increase in the levels of Q10H2 (SK-MEL-28 mitochondria): 3 fold
